Laboratory results taken from patent US20170115269A1, “ACYLCARNITINE COMPOSITION” (SEKISUI MEDICAL CO., LTD., priority 2014, published 2017).

Assay: Storage stability of acylcarnitine-stable isotopes in methanol solution at room temperature (Reference Example 1, LC-MS/MS residual rate)
Format: physicochemical
Experimental: Acylcarnitine solutions were acquired by dissolving acylcarnitine-stable isotopes into methanol to concentrations listed in Table 3. The acylcarnitine-stable isotopes were measured under the following conditions. The acylcarnitine solutions were measured immediately before storage (prepared at the time of use) and after storage for predetermined periods, and the residual rate (%) was calculated from the acquired peak area ratio using Equation 2 described below.
System: LC-20A series (manufactured by Shimadzu Corporation) and 4000 QTRAP (manufactured by AB Sciex) […]
Mobile phase: mobile phase A, 0.5% (v/v) formic acid aqueous solution mobile phase B, 500 mmol/L ammonium formate aqueous solution: 500 mmol/L ammonium hydroxide (9:1)/methanol=1/9
Analysis time: 70 minutes
LC column: Scherzo SS-C18, 3 μm, 3.0×150 mm (manufactured by Imtact Corporation) Column temperature: 50° C.
Sample injection amount: 5 μL
Ionization mode: ESI (electrospray ionization)
Ion source: Turbo IonSpray
Q1/Q3 is described in Table 3.

[1] = storage period 2 M (two months)

Compound	Res. Rt (Residual Rate) (storage period 1 M (one month))	Res. Rt (Residual Rate) [1]
[2H]C([2H])([2H])[N+](C)(C)CC(CC(=O)[O-])OC(=O)CC (stereo not shown) [^2H3-Propionylcarnitine]	97.4%	38.5%
[2H]C([2H])([2H])[N+](C)(C)CC(CC(=O)[O-])OC(=O)CCC (stereo not shown) [^2H3-Butyrylcarnitine]	101.7%	63.8%
[2H]C([2H])([2H])[N+](C)(C)CC(CC(=O)[O-])OC(=O)CC(C)(C)O (stereo not shown) [^2H3-(3-Hydroxyisovaleryl)-carnitine]	99.9%	97.9%
[2H]C([2H])([2H])[N+](CC(CC(=O)[O-])OC(=O)CC(C)C)(C([2H])([2H])[2H])C([2H])([2H])[2H] (stereo not shown) [^2H9-Isovalerylcarnitine]	100.3%	99.4%
[2H]C([2H])([2H])[N+](C)(C)CC(CC(=O)[O-])OC(=O)CCCC(=O)O (stereo not shown) [^2H3-Glutarylcarnitine]	99.3%	63.3%
[2H]C([2H])([2H])[N+](C[C@H](O)CC(=O)[O-])(C([2H])([2H])[2H])C([2H])([2H])[2H] [^2H9-Carnitine]	100.9%	100.2%

Further lines, results first:

Res. Rt (Residual Rate) (storage period 1 M (one month))	Res. Rt (Residual Rate) [1]	Compound
101.2%	62.6%	[2H]C([2H])([2H])[N+](C)(C)CC(CC(=O)[O-])OC(=O)CCCCCCCCCCCCCCC (stereo not shown) [^2H3-Palmitoylcarnitine]
103.3%	70.3%	[2H]C([2H])([2H])[N+](C)(C)CC(CC(=O)[O-])OC(=O)CCCCCCC (stereo not shown) [^2H3-Octanoylcarnitine]
103.7%	69.6%	[2H]C([2H])([2H])[N+](C)(C)CC(CC(=O)[O-])OC(=O)CCCCCCCCCCCCCCCCC (stereo not shown) [^2H3-Octadecanoylcarnitine]
103.9%	67.8%	[2H]C([2H])([2H])[N+](CC(CC(=O)[O-])OC(=O)CCCCCCCCCCCCC)(C([2H])([2H])[2H])C([2H])([2H])[2H] (stereo not shown) [^2H9-Myristoylcarnitine]
103.1%	84.9%	[2H]C([2H])([2H])[N+](C)(C)CC(CC(=O)[O-])OC(=O)CCCCCCCCCCC (stereo not shown) [^2H3-Dodecanoylcarnitine]
